Test results from paper PMC5597121, “The human bitter taste receptor T2R38 is broadly tuned for bacterial compounds” (PLoS ONE, 2017).
Substitutions are numbered along the chain they refer to. Several values for one entry are separate records, joined by “and”; a condition that tells them apart may be missing. Equal values may be shown once. Entries after “also recorded” stand apart in the source; their conditions may differ. Read-outs that look alike come from different tables or passages of the source.

Assays:
[1] = biological target: T1, T2R38 (Homo sapiens, UniProt P59533, A49P/I296V); test: Single cell calcium imaging, Peakrapid cells (Gα16gustducin44) transiently transfected with T2R38; format: cell-based; settings: for response of T2R38 PAV transfected cells (S7_fig raw data): individual values of experiments 1-5
T1 construct: leader: first 45 amino acids of rat somatostatin receptor subtype 3 (SSTR3) (N); expressed in transfected cells; host or cells: Peakrapid cells (HEK293 derivative, ATCC CRL-2828) stably expressing Galpha16gustducin44, co-transfected with human RTP4
T1 sequence (P59533 1-333 A49P/I296V): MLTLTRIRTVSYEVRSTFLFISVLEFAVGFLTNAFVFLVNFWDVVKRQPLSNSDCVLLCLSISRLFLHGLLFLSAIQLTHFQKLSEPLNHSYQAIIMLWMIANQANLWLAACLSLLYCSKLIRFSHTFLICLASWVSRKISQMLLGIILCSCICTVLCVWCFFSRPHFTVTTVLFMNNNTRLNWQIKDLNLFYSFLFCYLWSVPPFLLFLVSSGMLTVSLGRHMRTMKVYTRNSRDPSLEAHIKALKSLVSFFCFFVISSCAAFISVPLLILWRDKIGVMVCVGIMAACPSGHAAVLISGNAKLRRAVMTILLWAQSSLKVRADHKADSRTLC
Excerpt: (§1) The coding sequences of either the functional (PAV, GenBank accession number AY258597.1) and non-functional (AVI, GenBank accession number AF494231.1) were amplified from human genomic DNA by polymerase chain reaction.
These coding sequences were cloned in a pEFIB backbone vector in translational fusion with the coding sequence of a leader sequence corresponding to the 45 first amino acids of the rat somatostatin receptor subtype 3 [20]. The constructs were verified by sequencing. The coding sequence of RTP4 (Genbank accession number AY562238.1) was amplified from human spleen cDNA and cloned a pCI backbone vector.
The Gα16gustducin44 sequence was generated by swapping the last 132 nucleotides of the G α16 with the corresponding terminal sequence of the Gα-gustducin [21] and was cloned in a pIRES-Puro plasmid. This vector was transfected in the Peakrapid cell line (ATCC reference: CRL-2828™; purchased from LGC Standards SARL, Molsheim, FRANCE), HEK293 cell line derivative, cultured in EMEM culture medium (reference BE12-136F; Lonza, Vervier, BELGIUM) supplemented with 10% of foetal bovine serum (Sigma-Aldrich, Bornem, Belgium) and 1 μg/ml of Puromycin to allow the selection of recombinant cell populations. Cell clones expressing the Gα16gustducin44 were selected and the clone presenting the best functional response of T2R38 to phenylthicarbamide was used for the study (see below).
(§2) The Peakrapid cell line expressing stably a chimeric Gα16gustducin44 G protein [21] was used. 40 000 cells were seeded in each well of a black/clear poly-D-lysine cellware pre-coated 96-well plate (Biocoat®, Becton-Dickinson, Erembodegem, Belgium) and transiently transfected with 50 ng of plasmid DNA containing the receptor sequence or not (empty vector) and with 50 ng of chaperone protein RTP4 per well. Forty hours after transfection, cells were incubated with the calcium-sensitive dye Fluo4 (Life Technologies, Oregon, USA) solubilized at 10 μg/ml in a buffer containing EMEM (150 mM NaCl, 5 mM KCl, 2 mM CaCl2, 1.2 mM MgCl2, 10 mM glucose), 10 mM HEPES, 0.01% (v/v) Pluronic F127, 0.1% (w/v) bovine serum albumin. After 1 h incubation at 37°C, cells were rinsed twice with the same buffer without Fluo4 and left in 50 μl buffer (prior ligand injection). Measurement were performed on a platform based on a motorized Axiobserver Z1 fluorescence microscope piloted by a Axiovision software (Zeiss, Jena, Germany) as described previously. For each selected well, images were taken 1 per second, during 30 seconds. 50 μl of the buffer containing the ligand twice concentrated was injected on the 2nd second of the time lapse record.
After time lapse record, the number of responding cells in each injected well was determined using ImageJ 1.34 (Rasband, W.S., ImageJ, National Institutes of Health, Bethesda, Maryland, USA, http://rsb.info.nih.gov/ij/1997-2004), and expressed as the percentage of the surface of a microscope field covered by activated cells with respect to the total surface of the field covered by confluent cells. Automated determination of the surface occupied by responding cells is easier to perform than a cell counting. The resulting percentage of positive surface provided a convenient estimation of the percentage of responding cells, as observed by comparing the percentage of positive surface and percentage of responsive cells determined by direct counting, in the same experiment. In agreement with the literature, the percentage of responding cells was proportional to the agonist concentration. During experiment in each plate, at least 2 wells were tested with phenylthiocarbamide (PTC) at 0.1 mM, which is one of the best characterized agonist of T2R38 in the literature. The activation of T2R38 by PTC allows normalization of the result of other tested molecules. The results were thus expressed as the percentage of PTC activation. […]

[2] = tested on: mock transfected cells (empty vector); test: Single cell calcium imaging, control: mock transfected (empty vector) Peakrapid cells; format: cell-based, human
Description: as §2
(§3) After time lapse record, the number of responding cells in each injected well was determined using ImageJ 1.34 (Rasband, W.S., ImageJ, National Institutes of Health, Bethesda, Maryland, USA, http://rsb.info.nih.gov/ij/1997-2004), and expressed as the percentage of the surface of a microscope field covered by activated cells with respect to the total surface of the field covered by confluent cells. Automated determination of the surface occupied by responding cells is easier to perform than a cell counting. The resulting percentage of positive surface provided a convenient estimation of the percentage of responding cells, as observed by comparing the percentage of positive surface and percentage of responsive cells determined by direct counting, in the same experiment. In agreement with the literature, the percentage of responding cells was proportional to the agonist concentration. During experiment in each plate, at least 2 wells were tested with phenylthiocarbamide (PTC) at 0.1 mM, which is one of the best characterized agonist of T2R38 in the literature. The activation of T2R38 by PTC allows normalization of the result of other tested molecules. The results were thus expressed as the percentage of PTC activation. In scaling calcium imaging assays using this latter receptor, concentration-responses curves were performed and data were fitted to a four parameter logistic equation: y=min+ (max− min)/1+10 ^(logEC50−x)nH . Min and max are the minimum and the maximum values of the percentage of cell-activated surface respectively, y is the percentage of cell-activated surface at the x concentration and nH is the Hill coefficient.

[3] = biological target: T2, T2R38 AVI (Homo sapiens, UniProt P59533, A262V); test: Single cell calcium imaging, control: cells transfected with nonfunctional allele (AVI) of T2R38; format: cell-based; settings: for response of T2R38 AVI transfected cells (S7_fig raw data): individual values of experiments 1-5
T2 construct: leader: first 45 amino acids of rat somatostatin receptor subtype 3 (SSTR3) (N); expressed in transfected cells; host or cells: Peakrapid cells (HEK293 derivative, ATCC CRL-2828) stably expressing Galpha16gustducin44, co-transfected with human RTP4
T2 sequence (P59533 1-333 A262V): T1 sequence (P59533 1-333 A49P/I296V) with P49A, A262V, V296I
Description: as §1, §2, §3

[4] = 2 méthyl propanal 0.000398107, log10[ ] -3.4
[5] = 2 méthyl propanal 0.00251189, log10[ ] -2.6
[6] = 2 méthyl propanal 0.0158489, log10[ ] -1.8
[7] = concentration-response curve, read-out: EC50
[8] = percentage of the response elicited by 0.1 mM PTC

CC(C)C=O [2-methylpropanal]
agonist activity on T2R38 (in words) [1]: able to specifically trigger this receptor
percentage of surface covered by activated cells [1, 4]: 0.29% and 0.95% and 0.86% and 0.39% and 1.39% and 0.60% and 1.13% and 1.16%
percentage of surface covered by activated cells [1, 5]: 1.62% and 0.54% and 2.22% and 1.87% and 1.50% and 1.18% and 5.46% and 4.93%
percentage of surface covered by activated cells [1, 6]: 36.19% and 28.82% and 26.57% and 24.12% and 23.76% and 32.56% and 40.19% and 33.93%
response of T2R38 PAV transfected cells (S7_fig raw data) ([1]; listed as 2 méthyl propanal): 27% and 16% and 28% and 14% (2×) and 8.51%
EC50 [1, 7]: 11 mM
logEC50 ([1]; given in the concentration-response curve): -1.97
Emax (% of positive control) [1, 8]: 163 % of positive control
percentage of surface covered by activated cells [2, 4]: 0.75% and 0.87% and 0.24% and 0.23% and 0.25% and 0.37% and 0.61%
percentage of surface covered by activated cells [2, 5]: 0.28% and 0.65% and 0.25% and 0.23% and 1.49% and 1.18% and 0.31% and 0.37%
percentage of surface covered by activated cells ([2]; 2 méthyl propanal 0.00398107, log10[ ] -2.4): 0.33% and 0.26% and 0.12% and 0.41% and 0.13% and 0.42% and 0.48% and 0.87%
percentage of surface covered by activated cells ([2]; 2 méthyl propanal 0.00630957, log10[ ] -2.2): 0.35% and 0.63% and 0.24% and 0.06% and 0.59% and 0.25% and 0.34% and 0.85%
percentage of surface covered by activated cells ([2]; 2 méthyl propanal 0.01, log10[ ] -2): 0.73% and 0.27% and 0.89% and 1.38% and 0.42% and 1.05% and 1.19% and 0.79%
percentage of surface covered by activated cells [2, 6]: 1.86% and 0.33% and 2.42% and 3.28% and 1.11% and 1.32% and 3.65% and 5.14%
response of T2R38 AVI transfected cells (S7_fig raw data) ([3]; listed as 2 méthyl propanal): 1% (2×) and 2% and 1.41% and 0.831% and 1.15%

C[S+](C)[O-] [DMSO, dimethylsulfoxide]
agonist activity on T2R38 (in words) [1]: activated T2R38
percentage of surface covered by activated cells ([1]; DMSO 0.0208957 M): 0.32% and 1.00% and 0.12% and 3.02% and 1.04% and 0.84%
percentage of surface covered by activated cells ([1]; DMSO 0.0505834 M): 0.62% and 1.17% and 1.07% and 2.06% and 2.44%
percentage of surface covered by activated cells ([1]; DMSO 0.0660305 M): 0.58% and 2.76% and 4.06% and 1.23% and 6.36% and 2.08%
percentage of surface covered by activated cells ([1]; DMSO 0.15%): 0.58% and 0.91% and 0.69% and 1.00%
percentage of surface covered by activated cells ([1]; DMSO 0.3%): 0.69% and 0.46%
percentage of surface covered by activated cells ([1]; DMSO 1.5%): 4.39% and 7.39% and 7.25% and 2.49% and 4.85% and 7.28%
T2R38-dependent calcium response ([1]; DMSO 1.5% (209 mM) alone): induced a T2R38-dependent calcium response of the same intensity; also recorded: activates specifically T2R38
Emax (% of positive control) [1, 8]: 88 % of positive control
percentage of surface covered by activated cells ([2]; DMSO 0.0208957 M): 0.0457% and 0.0545% and 0.10%
percentage of surface covered by activated cells ([2]; DMSO 0.0505834 M): 0.62% and 0.46% and 0.98%
percentage of surface covered by activated cells ([2]; DMSO 0.0660305 M): 1.05% and 0.28% and 0.79%
percentage of surface covered by activated cells ([2]; DMSO 0.113804 M): 0.19% and 0.57% and 0.37%
percentage of surface covered by activated cells ([2]; DMSO 0.15%): 0.20% and 0.05%
percentage of surface covered by activated cells ([2]; DMSO 0.161577 M): 0.48% and 0.22% and 0.50%
percentage of surface covered by activated cells ([2]; DMSO 0.208656 M): 1.44% and 1.21% and 1.20%
percentage of surface covered by activated cells ([2]; DMSO 0.283773 M): 0.60% and 5.54% and 2.61%
percentage of surface covered by activated cells ([2]; DMSO 0.3%): 0.01%
percentage of surface covered by activated cells ([2]; DMSO 0.388101 M): 0.89% and 2.18% and 2.66%
percentage of surface covered by activated cells ([2]; DMSO 0.417313 M): 2.52% and 1.37% and 1.55%
percentage of surface covered by activated cells ([2]; DMSO 1.5%): 1.51% and 0.51% and 0.83% and 0.76% and 0.97% and 0.34%
effect on the non-functional haplotype of T2R38 (AVI) [3]: absence of effect

CCCC(C)=O [2-pentanone]
agonist activity on T2R38 (in words) [1]: able to specifically trigger this receptor
response of T2R38 PAV transfected cells (S7_fig raw data) [1]: 9% and 12% and 15% and 13% (2×) and 7.41% and 5.71% and 14%
EC50 [1, 7]: 4 mM
EC50 ([1]; given in the concentration-response curve, read-out: logEC50 (converted)): 4.17 mM
Emax ([1]; percentage of the response elicited by 0.1 mM PTC, read-out: Emax (% of positive control)): 45%
percentage of surface covered by activated cells ([2]; 2 pentanone 0.0001, log10[ ] -4): 0.19% and 0.34% and 0.32% and 0.16% and 0.35% and 0.41%
percentage of surface covered by activated cells ([2]; 2 pentanone 0.001, log10[ ] -3): 0.04% and 1.06% and 0.17% and 0.14% and 0.64% and 0.06%
percentage of surface covered by activated cells ([2]; 2 pentanone 0.003, log10[ ] -2.52288): 0.03% and 0.41% and 0.31% and 0.06% and 0.22% and 0.074%
percentage of surface covered by activated cells ([2]; 2 pentanone 0.006, log10[ ] -2.22185): 0.27% and 1.25% and 0.19% and 0.29% and 0.62% and 0.33%
percentage of surface covered by activated cells ([2]; 2 pentanone 0.02, log10[ ] -1.69897): 0.18% and 0.24% and 0.54% and 1.13% and 0.15% and 0.52%
response of T2R38 AVI transfected cells (S7_fig raw data) [3]: 0.427% and 0.477% and 0.476% and 0.193% and 0.0823% and 0.141% and 0.285% and 0.393%
